Test results: ChEMBL document CHEMBL3046832, “Synthesis of some sulfonamides, disubstituted sulfonylureas or thioureas and some structurally related variants. A class of promising antitumor agents” (2007)

Experiments:
Type in all cases: functional
MDA-MB-435 = experiment: Cytotoxicity against Homo sapiens (human) MDA-MB-435 cells after 48 hr by SRB assay; conditions: MDA-MB-435, 48 h
M14 = experiment: Cytotoxicity against Homo sapiens (human) M14 cells after 48 hr by SRB assay; conditions: M14, 48 h
LOX IMVI = experiment: Cytotoxicity against Homo sapiens (human) LOXIMVI cells after 48 hr by SRB assay
U-251 = experiment: Cytotoxicity against Homo sapiens (human) U251 cells after 48 hr by SRB assay; conditions: U-251, 48 h
SNB-75 = experiment: Cytotoxicity against Homo sapiens (human) SNB75 cells after 48 hr by SRB assay; conditions: SNB-75, 48 h
Hs-578T = experiment: Cytotoxicity against Homo sapiens (human) Hs578T cells after 48 hr by SRB assay
MCF7 [1] = experiment: Cytotoxicity against Homo sapiens (human) MCF7 cells after 48 hr by SRB assay; conditions: MCF7, 48 h
MDA-MB-231 = experiment: Cytotoxicity against Homo sapiens (human) MDA-MB-231 cells after 48 hr by SRB assay; conditions: MDA-MB-231, 48 h
DU-145 = experiment: Cytotoxicity against Homo sapiens (human) DU145 cells after 48 hr by SRB assay; conditions: DU-145, 48 h
UO-31 = experiment: Cytotoxicity against Homo sapiens (human) UO31 cells after 48 hr by SRB assay; conditions: UO-31, 48 h
CAKI-1 = experiment: Cytotoxicity against Homo sapiens (human) Caki1 cells after 48 hr by SRB assay; conditions: CAKI-1, 48 h
ACHN = experiment: Cytotoxicity against Homo sapiens (human) ACHN cells after 48 hr by SRB assay
786-0 = experiment: Cytotoxicity against Homo sapiens (human) 786-0 cells after 48 hr by SRB assay; conditions: 786-0, 48 h
OVCAR-8 = experiment: Cytotoxicity against Homo sapiens (human) OVCAR8 cells after 48 hr by SRB assay; conditions: OVCAR-8, 48 h
OVCAR-5 = experiment: Cytotoxicity against Homo sapiens (human) OVCAR5 cells after 48 hr by SRB assay; conditions: OVCAR-5, 48 h
OVCAR-4 = experiment: Cytotoxicity against Homo sapiens (human) OVCAR4 cells after 48 hr by SRB assay; conditions: OVCAR-4, 48 h
IGROV-1 = experiment: Cytotoxicity against Homo sapiens (human) IGROV1 cells after 48 hr by SRB assay; conditions: IGROV-1, 48 h
OVCAR-3 = experiment: Cytotoxicity against Homo sapiens (human) OVCAR3 cells after 48 hr by SRB assay; conditions: OVCAR-3, 48 h
UACC-62 = experiment: Cytotoxicity against Homo sapiens (human) UACC62 cells after 48 hr by SRB assay; conditions: UACC-62, 48 h
UACC-257 = experiment: Cytotoxicity against Homo sapiens (human) UACC257 cells after 48 hr by SRB assay; conditions: UACC-257, 48 h
SK-MEL-5 = experiment: Cytotoxicity against Homo sapiens (human) SK-MEL-5 cells after 48 hr by SRB assay; conditions: SK-MEL-5, 48 h
[2] = Cytotoxicity against Homo sapiens (human) breast cancer cells after 48 hr by SRB assay; conditions: Cancer cell lines
[3] = Cytotoxicity against Homo sapiens (human) prostate cancer cells after 48 hr by SRB assay; conditions: Cancer cell lines
[4] = Cytotoxicity against Homo sapiens (human) renal cancer cells after 48 hr by SRB assay; conditions: Cancer cell lines
[5] = Cytotoxicity against Homo sapiens (human) melanoma cells after 48 hr by SRB assay; conditions: Melanoma cell
[6] = Cytotoxicity against Homo sapiens (human) CNS cancer cells after 48 hr by SRB assay; conditions: Cancer cell lines
[7] = Cytotoxicity against Homo sapiens (human) colon cancer cells after 48 hr by SRB assay; conditions: Cancer cell lines
[8] = Cytotoxicity against Homo sapiens (human) non-small cell lung cancer cells after 48 hr by SRB assay; conditions: Cancer cell lines
NCI-H460 = experiment: Cytotoxicity against Homo sapiens (human) NCI-H460 cells assessed as cellular growth after 48 hr by Alamar blue assay; parameters: concentration or dose not given beside the values
[9] = Cytotoxicity against Homo sapiens (human) leukemia cells after 48 hr by SRB assay; conditions: Leukemia cell
T47D = experiment: Cytotoxicity against Homo sapiens (human) T47D cells after 48 hr by SRB assay
SF-539 = experiment: Cytotoxicity against Homo sapiens (human) SF539 cells after 48 hr by SRB assay; conditions: SF-539, 48 h
SF-295 = experiment: Cytotoxicity against Homo sapiens (human) SF295 cells after 48 hr by SRB assay; conditions: SF-295, 48 h
SF-268 = experiment: Cytotoxicity against Homo sapiens (human) SF268 cells after 48 hr by SRB assay; conditions: SF-268, 48 h
HCT-15 = experiment: Cytotoxicity against Homo sapiens (human) HCT15 cells after 48 hr by SRB assay; conditions: HCT-15, 48 h
HT-29 = experiment: Cytotoxicity against Homo sapiens (human) HT-29 cells after 48 hr by SRB assay; conditions: HT-29, 48 h
HCC 2998 = experiment: Cytotoxicity against Homo sapiens (human) HCC2998 cells after 48 hr by SRB assay; conditions: HCC 2998, 48 h
NCI-H522 = experiment: Cytotoxicity against Homo sapiens (human) NCI-H522 cells after 48 hr by SRB assay; conditions: NCI-H522, 48 h
COLO 205 = experiment: Cytotoxicity against Homo sapiens (human) COLO205 cells after 48 hr by SRB assay; conditions: COLO 205, 48 h
NCI-H23 = experiment: Cytotoxicity against Homo sapiens (human) NCI-H23 cells after 48 hr by SRB assay; conditions: NCI-H23, 48 h
[10] = Cytotoxicity against Homo sapiens (human) NCI-H322 cells after 48 hr by SRB assay; conditions: NCI-H322, 48 h
EKVX = experiment: Cytotoxicity against Homo sapiens (human) EKVX cells after 48 hr by SRB assay
HOP-62 = experiment: Cytotoxicity against Homo sapiens (human) HOP62 cells after 48 hr by SRB assay; conditions: HOP-62, 48 h
A549 = experiment: Cytotoxicity against Homo sapiens (human) A549 cells after 48 hr by SRB assay; conditions: A549, 48 h
MOLT-4 = experiment: Cytotoxicity against Homo sapiens (human) MOLT4 cells after 48 hr by SRB assay; conditions: MOLT-4, 48 h
CCRF-CEM = experiment: Cytotoxicity against Homo sapiens (human) CCRF-CEM cells after 48 hr by SRB assay
MCF7 [11] = experiment: Cytotoxicity against Homo sapiens (human) MCF7 cells assessed as cellular growth after 48 hr by Alamar blue assay; parameters: concentration or dose not given beside the values

## O=C(c1ccccc1)n1c(-c2ccccc2)cs/c1=N\S(=O)(=O)c1ccc(N2N=C3c4ccccc4CC3C2c2cccs2)cc1 (stereo not given)
MDA-MB-435
  GI50: 31.1 µM
M14
  GI50: 33 µM
LOX IMVI
  GI50: 30.7 µM
U-251
  GI50: 32 µM
SNB-75
  GI50: > 100 µM
Hs-578T
  GI50: 17 µM
MCF7 [1]
  GI50: > 100 µM
MDA-MB-231
  GI50: 41.3 µM
DU-145
  GI50: 47 µM
UO-31
  GI50: 98.1 µM
CAKI-1
  GI50: 38 µM
ACHN
  GI50: 43.8 µM
786-0
  GI50: 21.8 µM
OVCAR-8
  GI50: 42.9 µM
OVCAR-5
  GI50: 34.3 µM
OVCAR-4
  GI50: > 100 µM
IGROV-1
  GI50: > 100 µM
OVCAR-3
  GI50: 55.2 µM
UACC-62
  GI50: 27.3 µM
UACC-257
  GI50: 45.7 µM
SK-MEL-5
  GI50: 24.4 µM
[2]
  GI50: 65.3 µM
  TGI: > 100 µM
[3]
  GI50: 43.1 µM
  TGI: > 100 µM
[4]
  GI50: 44.8 µM
  TGI: 95.3 µM
[5]
  GI50: 51.6 µM
  TGI: 98.2 µM
[6]
  GI50: 64.5 µM
  TGI: > 100 µM
[7]
  GI50: 53.3 µM
  TGI: 90.4 µM
[8]
  GI50: 43.7 µM
  TGI: 83.9 µM
NCI-H460
  Activity: <=32%
[9]
  GI50: 32.9 µM
  TGI: 80.3 µM
T47D
  GI50: > 100 µM
SF-539
  GI50: 58.6 µM
SF-295
  GI50: 37.1 µM
SF-268
  GI50: > 100 µM
HCT-15
  GI50: 61.4 µM
HT-29
  GI50: 73.3 µM
HCC 2998
  GI50: 14 µM
NCI-H522
  GI50: 23.7 µM
COLO 205
  GI50: 98.1 µM
NCI-H23
  GI50: 13.1 µM
[10]
  GI50: 22.3 µM
EKVX
  GI50: 40.7 µM
HOP-62
  GI50: 23.7 µM
A549
  GI50: 39.5 µM
MOLT-4
  GI50: 30.5 µM
CCRF-CEM
  GI50: 41.3 µM
MCF7 [11]
  Activity: <=32%

## O=C1CCS/C(=N\S(=O)(=O)c2ccc(N3N=C4c5ccccc5CC4C3c3cccs3)cc2)N1C(=O)c1ccccc1 (stereo not given)
MDA-MB-435
  GI50: 22.7 µM
M14
  GI50: 10.8 µM
LOX IMVI
  GI50: 7.61 µM
U-251
  GI50: 4.5 µM
SNB-75
  GI50: > 100 µM
Hs-578T
  GI50: 2.85 µM
MCF7 [1]
  GI50: 9.1 µM
MDA-MB-231
  GI50: 5.77 µM
DU-145
  GI50: 23.2 µM
UO-31
  GI50: 30.7 µM
CAKI-1
  GI50: 26.8 µM
ACHN
  GI50: 5.18 µM
786-0
  GI50: 14.1 µM
OVCAR-8
  GI50: 0.81 µM
OVCAR-5
  GI50: 25.8 µM
OVCAR-4
  GI50: > 100 µM
IGROV-1
  GI50: 14.5 µM
OVCAR-3
  GI50: 27.4 µM
UACC-62
  GI50: 6.37 µM
UACC-257
  GI50: 0.33 µM
SK-MEL-5
  GI50: 2.56 µM
[2]
  GI50: 25.4 µM
  TGI: 73.5 µM
[3]
  GI50: 26.2 µM
  TGI: > 100 µM
[4]
  GI50: 17.7 µM
  TGI: 38.1 µM
[5]
  GI50: 15.3 µM
  TGI: 21.2 µM
[6]
  GI50: 36.7 µM
  TGI: 68.2 µM
[7]
  GI50: 27.4 µM
  TGI: 52.6 µM
[8]
  GI50: 21.7 µM
  TGI: 71.4 µM
NCI-H460
  Activity: <=32%
[9]
  GI50: 37.6 µM
  TGI: 80.1 µM
T47D
  GI50: > 100 µM
SF-539
  GI50: 23.8 µM
SF-295
  GI50: 32.7 µM
SF-268
  GI50: 13.7 µM
HCT-15
  GI50: 15.1 µM
HT-29
  GI50: 39.6 µM
HCC 2998
  GI50: 18.2 µM
NCI-H522
  GI50: 14.4 µM
COLO 205
  GI50: 66.5 µM
NCI-H23
  GI50: 17.2 µM
[10]
  GI50: 32.5 µM
EKVX
  GI50: 22.1 µM
HOP-62
  GI50: 31.1 µM
A549
  GI50: 10.6 µM
MOLT-4
  GI50: 50.4 µM
CCRF-CEM
  GI50: 15 µM
MCF7 [11]
  Activity: <=32%
